Measurements taken from patent US20220204491A1, “FXR (NR1H4) MODULATING COMPOUNDS” (Gilead Sciences, Inc., priority 2019, published 2022).

How the values were obtained:
[1] = molecular target: T1, human FXR alpha ligand binding domain (LBD) (Homo sapiens, UniProt Q96RI1); test: FRET activity assay (FXR-LBD / SRC-1 cofactor peptide interaction, LANCE); type: biochemical; conditions: GST-FXR-LBD, biotinylated SRC-1 peptide 676-700
T1 construct: made in house; host or cells: E. coli BL21(DE3), vector pDEST15
T1 sequence (Q96RI1 187-472 isoform Q96RI1-2): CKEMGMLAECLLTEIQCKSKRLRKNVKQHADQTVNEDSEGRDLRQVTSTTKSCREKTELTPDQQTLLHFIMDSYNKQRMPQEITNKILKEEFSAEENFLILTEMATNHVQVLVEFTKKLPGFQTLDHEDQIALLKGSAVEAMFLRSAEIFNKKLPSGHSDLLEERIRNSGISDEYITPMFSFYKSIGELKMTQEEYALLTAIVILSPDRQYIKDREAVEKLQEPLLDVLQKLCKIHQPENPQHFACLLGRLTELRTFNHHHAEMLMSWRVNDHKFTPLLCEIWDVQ
Method: Determination of a ligand mediated cofactor peptide interaction to quantify ligand binding to the nuclear receptor FXR was performed as follows.
Preparation of human FXR alpha ligand binding domain (LBD): The human FXRalpha LBD was expressed in E. coli strain BL21(DE3) as an N-terminally GST tagged fusion protein. The DNA encoding the FXR ligand binding domain was cloned into vector pDEST15 (Invitrogen). Expression was under control of an IPTG inducible T7 promoter. The amino acid boundaries of the ligand binding domain were amino acids 187-472 of Database entry NM 005123 (RefSeq). Expression and purification of the FXR-LBD: An overnight preculture of a transformed E. coli strain was diluted 1:20 in LB-Ampicillin medium and grown at 30° C. to an optical density of OD600=0.4−0.6. Gene expression was then induced by addition of 0.5 mM IPTG. Cells were incubated an additional 6 h at 30° C., 180 rpm. Cells were collected by centrifugation (7000×g, 7 minutes, room temperature). […] The protein was analysed by SDS-Page.
The method measures the ability of putative ligands to modulate the interaction between the purified bacterially expressed FXR ligand binding domain (LBD) and a synthetic biotinylated peptide based on residues 676-700 of SRC-1 (LCD2, 676-700). […] The ligand binding domain (LBD) of FXR was expressed as fusion protein with GST in BL-21 cells using the vector pDEST15. […] For ease of handling and reduction of background from compound fluorescence LANCE technology makes use of generic fluorophore labels and time resolved detection Assays were done in a final volume of 25 μL in a 384 well plate, in a Tris-based buffer (20 mM Tris-HCl pH 7.5; 60 mM KCl, 5 mM MgCl2; 35 ng/μL BSA), containing 20-60 ng/well recombinantly expressed FXR-LBD fused to GST, 200-600 nM N-terminally biotinylated peptide, representing SRC1 aminoacids 676-700, 200 ng/well Streptavidin-xlAPC conjugate (Prozyme) and 6-10 ng/well Eu W1024-antiGST (Perkin Elmer). […] The LANCE signal was detected by a Perkin Elmer VICTOR2VTM Multilabel Counter. […]

[2] = molecular target: T2, CYP2B6 (Homo sapiens, UniProt P20813); test: CYP2B6 inhibition in human liver microsomes (bupropion probe); type: in vitro ADME; conditions: human liver microsomes 0.1 mg/mL, bupropion 110 μM, 0.1-25 μM compound
T2 construct: from tissue; host or cells: human liver microsomes
T2 sequence (P20813 1-491): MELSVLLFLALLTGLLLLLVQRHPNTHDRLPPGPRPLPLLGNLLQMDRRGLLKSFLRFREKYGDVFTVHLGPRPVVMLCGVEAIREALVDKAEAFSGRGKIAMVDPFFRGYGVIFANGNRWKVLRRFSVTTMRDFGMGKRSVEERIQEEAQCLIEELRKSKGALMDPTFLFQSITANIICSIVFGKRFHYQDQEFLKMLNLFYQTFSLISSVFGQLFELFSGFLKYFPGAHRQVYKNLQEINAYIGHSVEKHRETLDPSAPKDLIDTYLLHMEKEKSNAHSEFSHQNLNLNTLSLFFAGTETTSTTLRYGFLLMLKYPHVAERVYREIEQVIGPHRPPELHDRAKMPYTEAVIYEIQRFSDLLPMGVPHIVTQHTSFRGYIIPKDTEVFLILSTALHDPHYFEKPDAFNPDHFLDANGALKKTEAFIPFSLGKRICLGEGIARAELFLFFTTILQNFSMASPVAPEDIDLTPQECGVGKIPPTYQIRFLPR
Method: The compound of Formula (I) (Example 1) was assessed for CYP2C8, CYP3A4, and CYP2B6 inhibition and was compared against Comparative Example 1.
Six test compound concentrations (0.1, 0.25, 1, 2.5, 10, 25 μM in DMSO; final DMSO concentration 0.3%) are incubated with human liver microsomes (0.1 mg/mL) and NADPH (1 mM) in the presence of the probe substrate bupropion (110 μM) for 5 min at 37° C. The selective CYP2B6 inhibitor, ticlopidine, is screened alongside the test compounds as a positive control.
For each of the CYP2B6, CYP2C8, and CYP3A4 incubations, the reactions were terminated by methanol addition. The samples were then centrifuged and analyzed by LC-MS/MS. Formic acid in deionised water (final concentration 0.1%) containing internal standard was added to the final sample prior to analysis. A decrease in the formation of the metabolites compared to vehicle control was used to calculate IC50.

| Structure (SMILES) | EC50 [1] [nM] | CYP2B6 inhibition [2] |
| --- | --- | --- |
| O=C(O)c1cnc(N2CC(O)(c3ccc(OCc4c(-c5c(Cl)cc(F)cc5Cl)noc4C4CC4)cc3Cl)C2)c(F)c1 [Comparative Example 1, 6-(3-(2-chloro-4-((5-cyclopropyl-3-(2,6-dichloro-4-fluorophenyl)isoxazol-4-yl)methoxy)phenyl)-3-hydroxyazetidin-1-yl)-5-fluoronicotinic acid] | 7.5 | inhibited CYP2B6 |
| O=C(O)c1ccc(N2CC(O)(c3ccc(OCc4c(-c5c(Cl)cccc5Cl)noc4C4CC4)cc3Cl)C2)nc1 [Comparative Example 2] | 3.4 | – |
| O=C(O)c1ccc(N2CC(O)(c3ccc(OCc4c(-c5c(Cl)cc(F)cc5Cl)noc4C4CC4)cc3Cl)C2)nc1 [Example 1, 6-(3-(2-chloro-4-((5-cyclopropyl-3-(2,6-dichloro-4-fluorophenyl)isoxazol-4-yl)methoxy)phenyl)-3-hydroxyazetidin-1-yl)nicotinic acid] | 14.2 | did not inhibit CYP2B6 |
